# Measured values from patent US8742116B2, “Cycloalkylamine substituted isoquinolone derivatives” (Sanofi, priority 2006, dated 2014).
# Molecular target: T1, Active human recombinant ROCK II (N-terminal His6-tagged recombinant human ROCK-II residues 11-552) (Homo sapiens, UniProt O75116)
# T1 construct: recombinant human ROCK-II residues 11-552; His6 (N); purchased Upstate Ltd., Dundee, UK
# Assay: Determination of Rho Kinase Inhibition (Caliper peptide phosphorylation assay)
# Assay type: biochemical
# Details: Fluorescein-AKRRRLSSLRA-COOH substrate and ATP, 60 min incubation at 32° C., respective form (salt or free base) obtained as in the examples
# Experimental: Determination of Rho Kinase Inhibition
# To measure Rho-kinase inhibition, IC50 values were determined according to the following protocol:
# Active human recombinant ROCK II (N-terminal His6-tagged recombinant human ROCK-II residues 11-552) was purchased from Upstate Ltd., Dundee, UK. The peptide substrate, Fluorescein-AKRRRLSSLRA-COOH, was obtained from JPT Peptide Technologies, Berlin, Germany. Adenosine-5′-triphosphate (ATP), bovine serum albumine (BSA), dimethylsulphoxide (DMSO), 4-(2-hydroxyethyl)piperazine-1-ethanesulfonic acid (Hepes), Brij-35 and dithiothreitol (DTT) were purchased from Sigma-Aldrich, Munich, Germany. Tris(hydroxymethyl)-aminomethane (Tris), magnesium chloride, NaOH, 1 M HCl and EDTA were obtained from Merck Biosciences, Darmstadt, Germany. “Complete” protease inhibitor was from Roche Diagnostics, Mannheim, Germany.
# Test compounds were diluted to the appropriate concentrations in buffer 1 (25 mM Tris-HCl, pH 7.4, 5 mM MgCl2, 2 mM DTT, 0.02% (w/v) BSA and 3% DMSO). The ROCK II enzyme was diluted to a concentration of 100 ng/ml in buffer 2 (25 mM Tris-HCl, pH 7.4, 5 mM MgCl2, 2 mM DTT and 0.02% (w/v) BSA). The peptide substrate and ATP were diluted to concentrations of 3 μM and 120 μM, respectively, in the buffer 2. 2 μl of the compound solution were mixed with 2 μl of the diluted enzyme in a 384-well small volume microtiter plate (Greiner, Bio-One, Frickenhausen, Germany), and the kinase reaction was initiated by addition of 2 μl of the solution containing peptide substrate and ATP. After 60 min incubation at 32° C., the reaction was stopped by addition of 20 μl of a solution containing 100 mM Hepes-NaOH, pH 7.4, 0.015% (v/v) Brij-35, 45 mM EDTA and 0.227% chip coating reagent 1 (Caliper Lifescience Inc, Hopkinton, Mass.). Phosphorylation of the substrate peptide was then detected on a Caliper 3000 instrument essentially as described by Pommereau et al. (J. Biomol. Screening 2004, 9(5), 409-416). Separation conditions were as follows: Pressure—1.3 psi, upstream voltage—1562 V, downstream voltage—500 V, sample sip time 200 ms. Positive controls (buffer 1 instead of compound) and negative controls (buffer 1 instead of compound and buffer 2 instead of ROCK II) were run in parallel on each plate.
# The following products/compounds were tested in said assay by using the respective form (salt or free base) obtained as in the examples described above and the following activities were measured.
# T1 sequence (O75116 11-552): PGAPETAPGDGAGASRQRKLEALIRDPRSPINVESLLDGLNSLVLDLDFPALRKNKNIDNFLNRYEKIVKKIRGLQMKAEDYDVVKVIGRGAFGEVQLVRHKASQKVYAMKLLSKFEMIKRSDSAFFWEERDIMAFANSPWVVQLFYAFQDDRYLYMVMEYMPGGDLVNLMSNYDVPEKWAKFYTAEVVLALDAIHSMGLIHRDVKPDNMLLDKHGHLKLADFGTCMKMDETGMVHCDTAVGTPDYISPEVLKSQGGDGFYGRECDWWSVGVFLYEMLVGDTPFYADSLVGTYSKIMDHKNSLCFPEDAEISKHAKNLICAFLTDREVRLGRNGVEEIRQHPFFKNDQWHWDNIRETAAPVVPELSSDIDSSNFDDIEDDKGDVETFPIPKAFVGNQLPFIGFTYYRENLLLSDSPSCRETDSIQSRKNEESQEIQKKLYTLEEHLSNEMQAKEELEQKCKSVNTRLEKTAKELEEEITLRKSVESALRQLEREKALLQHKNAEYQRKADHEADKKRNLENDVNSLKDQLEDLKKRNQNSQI
row,SMILES,IC50
1,"NC(=O)C1CCN(C2CCC(Oc3cc4cc[nH]c(=O)c4cc3Cl)CC2)CC1 (mixture of isomers) [Compound 15, 1-[4-(7-Chloro-1-oxo-1,2-dihydro-isoquinolin-6-yloxy)-cyclohexyl]-piperidine-4-carboxylic acid amide]",≤ 1 µM
2,"O=c1[nH]ccc2cc(OC3CCC(N4CCCCC4)CC3)c(Cl)cc12 (mixture of isomers) [Compound 16, 7-Chloro-6-(4-piperidin-1-yl-cyclohexyloxy)-2H-isoquinolin-1-one]",≤ 1 µM
3,"O=c1[nH]ccc2cc(OC3CCC(N4CCOCC4)CC3)c(Cl)cc12 (mixture of isomers) [Compound 18, 7-Chloro-6-(4-morpholin-4-yl-cyclohexyloxy)-2H-isoquinolin-1-one]",≤ 1 µM
4,"NC1CC(Oc2cc3cc[nH]c(=O)c3cc2Cl)C1 (mixture of isomers) [Compound 54, 6-(3-Amino-cyclobutoxy)-7-chloro-2H-isoquinolin-1-one]",≤ 1 µM
5,"Cc1cc2c(=O)[nH]ccc2cc1O[C@@H]1CCC[C@H](N)CC1 (relative stereo) [Compound 47, 6-(cis-4-Amino-cycloheptyloxy)-7-methyl-2H-isoquinolin-1-one]",≤ 1 µM
6,"N[C@H]1CCC[C@@H](Oc2cc3cc[nH]c(=O)c3cc2Cl)CC1 (relative stereo) [Compound 48, 7-Chloro-6-(cis-4-Amino-cycloheptyloxy)-2H-isoquinolin-1-one]",≤ 1 µM
7,"CCC[C@]1(N)CCC[C@@H](Oc2cc3cc[nH]c(=O)c3cc2Cl)CCC1 (single isomer, unassigned) [Compound 66, 6-(cis-5-Amino-5-propyl-cyclooctyloxy)-7-chloro-2H-isoquinolin-1-one]",≤ 1 µM
8,"CCC[C@]1(N)CCC[C@H](Oc2cc3cc[nH]c(=O)c3cc2Cl)CCC1 (single isomer, unassigned) [Compound 67, 6-(trans-5-amino-5-propyl-cyclooctyloxy)-7-chloro-2H-isoquinolin-1-one]",≤ 1 µM
9,"O=c1[nH]ccc2cc(O[C@H]3CC[C@H](N4CCOCC4)CC3)c(Cl)cc12 [Compound 17, 7-Chloro-6-(4-morpholin-4-yl-cyclohexyloxy)-2H-isoquinolin-1-one]",≤ 1 µM
10,"O=c1[nH]ccc2cc(O[C@H]3CC[C@H](N4CCCC4)CC3)c(Cl)cc12 [Compound 19, 7-Chloro-6-(4-pyrrolidin-1-yl-cyclohexyloxy)-2H-isoquinolin-1-one]",≤ 1 µM
11,"O=c1[nH]ccc2cc(O[C@H]3CC[C@@H](N4CCCC4)CC3)c(Cl)cc12 [Compound 20, 7-Chloro-6-(4-pyrrolidin-1-yl-cyclohexyloxy)-2H-isoquinolin-1-one]",≤ 1 µM
12,"CN1CCN([C@H]2CC[C@H](Oc3cc4cc[nH]c(=O)c4cc3Cl)CC2)CC1 [Compound 21, 7-Chloro-6-[4-(4-methyl-piperazin-1-yl)-cyclohexyloxy]-2H-isoquinolin-1-one]",≤ 1 µM
13,"CN1CCN([C@H]2CC[C@@H](Oc3cc4cc[nH]c(=O)c4cc3Cl)CC2)CC1 [Compound 22, 7-Chloro-6-[4-(4-methyl-piperazin-1-yl)-cyclohexyloxy]-2H-isoquinolin-1-one]",≤ 1 µM
14,"O=C(O)CN[C@H]1CC[C@@H](Oc2cc3cc[nH]c(=O)c3cc2Cl)CC1 [Compound 24, [4-(7-Chloro-1-oxo-1,2-dihydro-isoquinolin-6-yloxy)-cis-cyclohexylamino]-acetic acid]",≤ 1 µM
15,"Cc1cc2c(=O)[nH]ccc2cc1O[C@H]1CC[C@H](NC(=O)CCC2CCNCC2)CC1 [Compound 28, N-[4-(7-Methyl-1-oxo-1,2-dihydro-isoquinolin-6-yloxy)-trans-cyclohexyl]-3-piperidin-4-yl-propionamide]",1 to 10 µM
16,"Cc1cc2c(=O)[nH]ccc2cc1O[C@H]1CC[C@H](NC(=O)CC2CCNCC2)CC1 [Compound 29, N-[4-(7-Methyl-1-oxo-1,2-dihydro-isoquinolin-6-yloxy)-trans-cyclohexyl]-2-piperidin-4-yl-acetamide]",1 to 10 µM
17,"O=C(CCC1CCNCC1)N[C@H]1CC[C@@H](Oc2cc3cc[nH]c(=O)c3cc2Cl)CC1 [Compound 30, N-[4-(7-Chloro-1-oxo-1,2-dihydro-isoquinolin-6-yloxy)-cis-cyclohexyl]-3-piperidin-4-yl-propionamide]",≤ 1 µM
18,"O=C(CC1CCNCC1)N[C@H]1CC[C@@H](Oc2cc3cc[nH]c(=O)c3cc2Cl)CC1 [Compound 31, N-[4-(7-Chloro-1-oxo-1,2-dihydro-isoquinolin-6-yloxy)-cis-cyclohexyl]-2-piperidin-4-yl-acetamide]",≤ 1 µM
19,"N[C@H]1CC[C@H](Oc2cc3cc[nH]c(=O)c3cc2Cl)C1 [Compound 44, 6-((1S,3S)-3-Amino-cyclopentyloxy)-7-chloro-2H-isoquinolin-1-one]",≤ 1 µM
20,"N[C@@H]1CC[C@H](Oc2ccc3c(=O)[nH]ccc3c2)C1 [Compound 45, 6-((1S,3R)-3-Amino-cyclopentyloxy)-2H-isoquinolin-1-one]",≤ 1 µM
21,"N[C@H]1C[C@H](COc2cc3cc[nH]c(=O)c3cc2Cl)C1 [Compound 56, trans-6-(3-Amino-cyclobutylmethoxy)-7-chloro-2H-isoquinolin-1-one]",≤ 1 µM
